Results as given in the CheMixHub viscosity set.
Values joined by “and” are separate entries in the source; they are usually repeats but may differ in a detail not shown here. Equal entries are not always repeated. ± gives the uncertainty stated by the source.

Assay: xn = mol fraction of the nth substance listed

CCCCNCCO + CCCCOCCO
viscosity
Conditions	293.15 K	298.15 K	303.15 K	308.15 K	313.15 K	318.15 K	323.15 K
101.3 kPa, x1 = 0.404	7.13 ± 0.15 mPa·s	5.95 ± 0.13 mPa·s	5.02 ± 0.11 mPa·s	4.27 ± 0.09 mPa·s	3.67 ± 0.08 mPa·s	3.18 ± 0.07 mPa·s	2.77 ± 0.06 mPa·s
101.3 kPa, x1 = 0.604	10.3 ± 0.22 mPa·s	8.4 ± 0.18 mPa·s	6.94 ± 0.15 mPa·s	5.8 ± 0.12 mPa·s	4.89 ± 0.1 mPa·s	4.17 ± 0.09 mPa·s	3.58 ± 0.08 mPa·s
101.33 kPa, x1 = 0.1	3.94 ± 0.09 mPa·s and 3.941 ± 0.085 mPa·s	3.4 ± 0.08 mPa·s and 3.405 ± 0.074 mPa·s	2.96 ± 0.07 mPa·s and 2.963 ± 0.064 mPa·s	2.6 ± 0.06 mPa·s and 2.598 ± 0.056 mPa·s	2.29 ± 0.05 mPa·s and 2.294 ± 0.053 mPa·s	2.04 ± 0.05 mPa·s and 2.038 ± 0.052 mPa·s	1.82 ± 0.04 mPa·s and 1.821 ± 0.052 mPa·s
101.33 kPa, x1 = 0.2	4.813 ± 0.11 mPa·s	4.111 ± 0.089 mPa·s	3.541 ± 0.076 mPa·s	3.075 ± 0.066 mPa·s	2.69 ± 0.058 mPa·s	2.369 ± 0.053 mPa·s	2.099 ± 0.053 mPa·s
101.33 kPa, x1 = 0.3	5.87 ± 0.13 mPa·s and 5.865 ± 0.13 mPa·s	4.95 ± 0.11 mPa·s and 4.952 ± 0.11 mPa·s	4.22 ± 0.09 mPa·s and 4.221 ± 0.091 mPa·s	3.63 ± 0.08 mPa·s and 3.629 ± 0.078 mPa·s	3.15 ± 0.07 mPa·s and 3.146 ± 0.068 mPa·s	2.75 ± 0.06 mPa·s and 2.746 ± 0.059 mPa·s	2.41 ± 0.05 mPa·s and 2.414 ± 0.053 mPa·s
101.33 kPa, x1 = 0.4	7.135 ± 0.16 mPa·s	5.951 ± 0.13 mPa·s	5.019 ± 0.11 mPa·s	4.272 ± 0.092 mPa·s	3.669 ± 0.079 mPa·s	3.176 ± 0.068 mPa·s	2.77 ± 0.059 mPa·s
101.33 kPa, x1 = 0.5	8.57 ± 0.19 mPa·s and 8.573 ± 0.18 mPa·s	7.07 ± 0.16 mPa·s and 7.072 ± 0.15 mPa·s	5.9 ± 0.13 mPa·s and 5.901 ± 0.13 mPa·s	4.98 ± 0.11 mPa·s and 4.975 ± 0.11 mPa·s	4.24 ± 0.09 mPa·s and 4.236 ± 0.091 mPa·s	3.64 ± 0.08 mPa·s and 3.638 ± 0.078 mPa·s	3.15 ± 0.07 mPa·s and 3.149 ± 0.068 mPa·s
101.33 kPa, x1 = 0.6	10.3 ± 0.22 mPa·s	8.404 ± 0.18 mPa·s	6.94 ± 0.15 mPa·s	5.796 ± 0.12 mPa·s	4.891 ± 0.11 mPa·s	4.166 ± 0.089 mPa·s	3.58 ± 0.077 mPa·s
101.33 kPa, x1 = 0.7	12.21 ± 0.26 mPa·s	9.853 ± 0.21 mPa·s	8.056 ± 0.17 mPa·s	6.668 ± 0.14 mPa·s	5.582 ± 0.12 mPa·s	4.719 ± 0.1 mPa·s	4.027 ± 0.086 mPa·s
101.33 kPa, x1 = 0.8	14.41 ± 0.31 mPa·s	11.5 ± 0.25 mPa·s	9.314 ± 0.2 mPa·s	7.641 ± 0.16 mPa·s	6.345 ± 0.14 mPa·s	5.326 ± 0.11 mPa·s	4.514 ± 0.097 mPa·s
101.33 kPa, x1 = 0.9	16.91 ± 0.36 mPa·s	13.36 ± 0.29 mPa·s	10.72 ± 0.23 mPa·s	8.718 ± 0.19 mPa·s	7.183 ± 0.15 mPa·s	5.985 ± 0.13 mPa·s	5.042 ± 0.11 mPa·s

CCNCCO + CCCCOCCO
viscosity, 101.33 kPa
Conditions	293.15 K	298.15 K	303.15 K	308.15 K	313.15 K	318.15 K	323.15 K
x1 = 0.1	3.962 ± 0.086 mPa·s	3.42 ± 0.074 mPa·s	2.977 ± 0.064 mPa·s	2.61 ± 0.056 mPa·s	2.304 ± 0.053 mPa·s	2.046 ± 0.052 mPa·s	1.828 ± 0.052 mPa·s
x1 = 0.13	3.96 ± 0.09 mPa·s	3.42 ± 0.08 mPa·s	2.98 ± 0.07 mPa·s	2.61 ± 0.06 mPa·s	2.3 ± 0.1 mPa·s	2.05 ± 0.05 mPa·s	1.83 ± 0.04 mPa·s
x1 = 0.2	4.804 ± 0.11 mPa·s	4.103 ± 0.088 mPa·s	3.536 ± 0.076 mPa·s	3.07 ± 0.066 mPa·s	2.685 ± 0.058 mPa·s	2.365 ± 0.053 mPa·s	2.096 ± 0.053 mPa·s
x1 = 0.36	5.75 ± 0.13 mPa·s	4.86 ± 0.11 mPa·s	4.15 ± 0.09 mPa·s	3.57 ± 0.08 mPa·s	3.09 ± 0.07 mPa·s	2.7 ± 0.1 mPa·s	2.38 ± 0.05 mPa·s
x1 = 0.4	5.753 ± 0.12 mPa·s	4.86 ± 0.11 mPa·s	4.146 ± 0.089 mPa·s	3.567 ± 0.077 mPa·s	3.094 ± 0.066 mPa·s	2.703 ± 0.058 mPa·s	2.377 ± 0.053 mPa·s
x1 = 0.5	6.822 ± 0.15 mPa·s	5.698 ± 0.12 mPa·s	4.811 ± 0.1 mPa·s	4.101 ± 0.088 mPa·s	3.527 ± 0.076 mPa·s	3.057 ± 0.065 mPa·s	2.67 ± 0.057 mPa·s
x1 = 0.57	7.99 ± 0.18 mPa·s	6.61 ± 0.15 mPa·s	5.53 ± 0.12 mPa·s	4.67 ± 0.1 mPa·s	3.98 ± 0.09 mPa·s	3.43 ± 0.08 mPa·s	2.97 ± 0.07 mPa·s
x1 = 0.6	7.994 ± 0.17 mPa·s	6.608 ± 0.14 mPa·s	5.525 ± 0.12 mPa·s	4.67 ± 0.1 mPa·s	3.984 ± 0.085 mPa·s	3.429 ± 0.073 mPa·s	2.975 ± 0.064 mPa·s
x1 = 0.7	9.303 ± 0.2 mPa·s	7.606 ± 0.16 mPa·s	6.3 ± 0.14 mPa·s	5.278 ± 0.11 mPa·s	4.466 ± 0.095 mPa·s	3.815 ± 0.082 mPa·s	3.288 ± 0.07 mPa·s
x1 = 0.8	10.71 ± 0.23 mPa·s and 12.33 ± 0.26 mPa·s	8.67 ± 0.19 mPa·s and 9.873 ± 0.21 mPa·s	7.112 ± 0.15 mPa·s and 8.025 ± 0.17 mPa·s	5.907 ± 0.13 mPa·s and 6.61 ± 0.14 mPa·s	4.962 ± 0.11 mPa·s and 5.51 ± 0.12 mPa·s	4.21 ± 0.09 mPa·s and 4.644 ± 0.099 mPa·s	3.606 ± 0.077 mPa·s and 3.953 ± 0.084 mPa·s
x1 = 0.9	14.15 ± 0.3 mPa·s	11.21 ± 0.24 mPa·s	9.023 ± 0.19 mPa·s	7.368 ± 0.16 mPa·s	6.098 ± 0.13 mPa·s	5.103 ± 0.11 mPa·s	4.316 ± 0.092 mPa·s
